This experiment deals with T1, human recombinant OX2 (hOX2) receptors expressed in CHO cells (Homo sapiens, UniProt O43614).
T1 construct: host or cells: CHO cells (hOX2-CHO)
T1 sequence (O43614 1-444): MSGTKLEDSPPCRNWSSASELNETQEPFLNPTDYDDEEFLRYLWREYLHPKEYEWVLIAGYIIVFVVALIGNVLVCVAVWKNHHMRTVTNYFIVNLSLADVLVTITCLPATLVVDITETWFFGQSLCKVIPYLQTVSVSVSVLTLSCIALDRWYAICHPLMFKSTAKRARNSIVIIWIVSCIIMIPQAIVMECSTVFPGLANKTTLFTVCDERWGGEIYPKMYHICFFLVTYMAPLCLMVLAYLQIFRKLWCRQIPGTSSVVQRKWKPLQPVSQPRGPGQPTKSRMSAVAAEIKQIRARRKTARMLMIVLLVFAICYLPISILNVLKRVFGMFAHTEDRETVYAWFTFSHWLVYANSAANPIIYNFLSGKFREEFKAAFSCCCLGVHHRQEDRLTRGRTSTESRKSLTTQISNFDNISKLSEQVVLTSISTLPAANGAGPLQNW
In words: IP-1 accumulation assay (IP-One HTRF) in hOX2-CHO cells. As to conditions: 60 min incubation at 37° C., mean of at least two independent experiments, read-out: EC50_OX2R Category. It is filed as cell-based. In a few lines:
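IP-1 HTRF (665/615 ratio) after 60 min compound exposure at 37 °C, 11-point dilution, 0.5% DMSO, LiCl-containing HEPES-buffered HBSS pH 7.4. Response expressed as percent of maximal OX-A effect; EC50 by four-parameter logistic fit, averaged over at least two independent experiments in duplicate.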

Take `O=C1COC[C@]2(CCCN3C(=O)CCOc4c(F)cccc4[C@H]4CC[C@H](CC4)OC[C@@H]32)N1` (single isomer, unassigned) [Example 48b]: the EC50 is < 0.1 µM.
Take `O=C1COC[C@@]2(CCCN3C(=O)CCOc4ccc(F)cc4[C@H]4CC[C@H](CC4)OC[C@H]32)N1` (single isomer, unassigned) [Example 49a]: the EC50 was < 0.1 µM.
In the case of `O=C1COC[C@]2(CCCN3C(=O)CCOc4ccc(F)cc4[C@H]4CC[C@H](CC4)OC[C@@H]32)N1` (single isomer, unassigned) [Example 49b] it was < 0.1 µM; in that of `O=C1COC[C@@]2(CCCN3C(=O)CCOc4c(F)cc(F)cc4[C@H]4CC[C@H](CC4)OC[C@H]32)N1` (single isomer, unassigned) [Example 50a], < 0.1 µM.
In the case of `O=C1COC[C@]2(CCCN3C(=O)CCOc4c(F)cc(F)cc4[C@H]4CC[C@H](CC4)OC[C@@H]32)N1` (single isomer, unassigned) [Example 50b] it was 0.1 to 1 µM.
Consider `O=C1COC[C@@]2(CCCN3C(=O)OCCOc4cccc(c4)[C@H]4CC[C@H](CC4)OC[C@H]32)N1` (single isomer, unassigned) [Example 53a], for which the EC50 is < 0.1 µM.
For the compound `O=C1COC[C@]2(CCCN3C(=O)OCCOc4cccc(c4)[C@H]4CC[C@H](CC4)OC[C@@H]32)N1` (single isomer, unassigned) [Example 53b], the EC50 is > 10 µM.
In the case of `O=C1COC[C@@]2(CCCN3C(=O)OCCCOc4cccc(c4)[C@H]4CC[C@H](CC4)OC[C@H]32)N1` (single isomer, unassigned) [Example 54a] it was < 0.1 µM; in that of `O=C1COC[C@]2(CCCN3C(=O)OCCCOc4cccc(c4)[C@H]4CC[C@H](CC4)OC[C@@H]32)N1` (single isomer, unassigned) [Example 54b], 1 to 10 µM; in that of `O=C1N[C@]2(CCCN3C(=O)COc4ccccc4[C@H]4CC[C@H](CC4)OC[C@H]32)COC1F` (single isomer, unassigned) [Example 56a], < 0.1 µM.
With `O=C1N[C@@]2(CCCN3C(=O)COc4ccccc4[C@H]4CC[C@H](CC4)OC[C@@H]32)COC1F` (single isomer, unassigned) [Example 56b] the figure was < 0.1 µM; with `O=C1CCC[C@@]2(CCCN3C(=O)COc4ccccc4[C@H]4CC[C@H](CC4)OC[C@H]32)N1` (single isomer, unassigned) [Example 58a], < 0.1 µM; with `O=C1CCC[C@]2(CCCN3C(=O)COc4ccccc4[C@H]4CC[C@H](CC4)OC[C@@H]32)N1` (single isomer, unassigned) [Example 58b], > 10 µM.
Regarding `O=C1COc2ccccc2[C@H]2CC[C@H](CC2)OC[C@@H]2N1CCC[C@@]21CCCS(=O)(=O)N1` (single isomer, unassigned) [Example 59a], the EC50 was < 0.1 µM.
On to `O=C1COc2ccccc2[C@H]2CC[C@H](CC2)OC[C@H]2N1CCC[C@]21CCCS(=O)(=O)N1` (single isomer, unassigned) [Example 59b], for which the EC50 was 1 to 10 µM.
As to `O=C1N[C@]2(CCCN3C(=O)COc4ccccc4[C@H]4CC[C@H](CC4)OC[C@H]32)CO1` (single isomer, unassigned) [Example 67a], the EC50 is < 0.1 µM.
On to `O=C1N[C@@]2(CCCN3C(=O)COc4ccccc4[C@H]4CC[C@H](CC4)OC[C@@H]32)CO1` (single isomer, unassigned) [Example 67b], for which the EC50 was > 10 µM.
In the case of `O=C1CS[C@@]2(CCCN3C(=O)COc4ccccc4[C@H]4CC[C@H](CC4)OC[C@H]32)N1` (single isomer, unassigned) [Example 68a] it was 0.1 to 1 µM; in that of `O=C1CS[C@]2(CCCN3C(=O)COc4ccccc4[C@H]4CC[C@H](CC4)OC[C@H]32)N1` (single isomer, unassigned) [Example 68b], > 10 µM.
With `O=C1COC[C@]2(CCCN3C(=O)C4(CC4)COc4cccc(F)c4[C@H]4CC[C@H](CC4)OC[C@@H]32)N1` (single isomer, unassigned) [Example 72a, (1′s,16′R,17′S,20′s)-3′-fluorodispiro [cyclopropane-1,10′-[8,19]dioxa-[12]azatetracyclo [18.2.2.0^2,^7.0^12,^17]tetracosane-16′,3″- morpholine]-2′,4′,6′-triene-5″,11′-dione] the figure was 1 to 10 µM; with `O=C1COC[C@@]2(CCCN3C(=O)C4(CC4)COc4cccc(F)c4[C@H]4CC[C@H](CC4)OC[C@H]32)N1` (single isomer, unassigned) [Example 72b, (1′s,16′S,17′R,20′s)-3′-fluorodispiro[cyclopropane-1,10′-[8,19]dioxa-[12]azatetracyclo [18.2.2.0^2,^7.0^12,^17]tetracosane-16′,3″- morpholine]-2′,4′,6′-triene-5″,11′-dione], < 0.1 µM.
As to `O=C1COC[C@]2(CCN3C(=O)C4(CC4)COc4cccc(F)c4[C@H]4CC[C@H](CC4)OC[C@@H]32)N1` (single isomer, unassigned) [Example 73a, (1′s,15′R,16′S,19′s)-3′-fluorodispiro [cyclopropane-1,10′-[8,18]dioxa-[12]azatetracyclo[17. 2.2.0^2,^7.0^12,^16]tricosane-15′,3″- morpholine]-2′,4′,6′-triene-5″,11′-dione], the EC50 is 1 to 10 µM.
With `O=C1COC[C@@]2(CCN3C(=O)C4(CC4)COc4cccc(F)c4[C@H]4CC[C@H](CC4)OC[C@H]32)N1` (single isomer, unassigned) [Example 73b, (1′s,15′S,16′R,19′s)-3′-fluorodispiro [cyclopropane-1,10′-[8,18]dioxa-[12]azatetracyclo [17.2.2.0^2,^7.0^12,^16]tricosane-15′,3″- morpholine]-2′,4′,6′-triene-5″,11′-dione] the figure was > 10 µM; with `CC1CC2(COCC(=O)N2)C2COC3CCC(CC3)c3ccncc3OCCC(=O)N12` (single isomer, unassigned) [Example 74], < 0.1 µM; with `CC1CC2(COCC(=O)N2)C2COC3CCC(CC3)c3ccncc3OCCC(=O)N12` (single isomer, unassigned) [Example 75], > 10 µM.
In the case of `O=C1COC[C@]2(CCCN3C(=O)CCCCOc4cccc(n4)[C@H]4CC[C@H](CC4)OC[C@@H]32)N1` (single isomer, unassigned) [Example 76a] it was > 10 µM; in that of `O=C1COC[C@@]2(CCCN3C(=O)CCCCOc4cccc(n4)[C@H]4CC[C@H](CC4)OC[C@H]32)N1` (single isomer, unassigned) [Example 76b], < 0.1 µM.
As for `CC1COc2ccccc2[C@H]2CC[C@H](CC2)OCC2N(CCC23COCC(=O)N3)C1=O` (stereo partly drawn) [Example 5, (1′s,3S,16′R,19′s)-10′-methyl-8′,18′-dioxa-12′-azaspiro[morpholine-3,15-′tetracyclo[17.2.2.0^2,70.0^12,16]tricosane]-2′(7′), 3′,5′-triene-5, 11′-dione], the EC50 is 0.1 to 1 µM.
With `C[C@@H]1C[C@@]2(COCC(=O)N2)[C@@H]2CO[C@H]3CC[C@H](CC3)c3ccccc3OCC(=O)N12` [Example 12a, (1′s,3S,12′R,15′R,18′s)-12′-methyl-8′,17′-dioxa-11′-azaspiro[morpholine-3,14′-tetracyclo[16.2.2.0^2,70.0^11,15]docosane]-2′(7′),3′,5′-triene-5,10′-dione] the figure was < 0.1 µM.

Source of the values: patent US20250320227A1, “MACROCYCLIC OREXIN RECEPTOR AGONISTS AND USES THEREOF” (Jazz Pharmaceuticals Ireland Limited, priority 2022, published 2025).
